Results published in BigSolDB 2.1.

## NC(=O)c1ccccc1N
In THF, 273.15 K
  solubility (mole fraction): 0.226
In THF, 279.15 K
  solubility (mole fraction): 0.237
In THF, 283.65 K
  solubility (mole fraction): 0.245
In THF, 289.15 K
  solubility (mole fraction): 0.255
In THF, 293.45 K
  solubility (mole fraction): 0.263
In THF, 299.15 K
  solubility (mole fraction): 0.275
In THF, 303.35 K
  solubility (mole fraction): 0.284
In THF, 309.15 K
  solubility (mole fraction): 0.296
In THF, 313.75 K
  solubility (mole fraction): 0.31
In THF, 319.15 K
  solubility (mole fraction): 0.326
In THF, 323.65 K
  solubility (mole fraction): 0.339
In acetone, 273.15 K
  solubility (mole fraction): 0.164
In acetone, 279.15 K
  solubility (mole fraction): 0.181
In acetone, 284.15 K
  solubility (mole fraction): 0.193
In acetone, 289.15 K
  solubility (mole fraction): 0.208
In acetone, 293.35 K
  solubility (mole fraction): 0.223
In acetone, 298.95 K
  solubility (mole fraction): 0.243
In acetone, 303.35 K
  solubility (mole fraction): 0.265
In acetone, 308.65 K
  solubility (mole fraction): 0.292
In acetone, 313.15 K
  solubility (mole fraction): 0.313
In acetone, 317.15 K
  solubility (mole fraction): 0.341
In acetone, 324.15 K
  solubility (mole fraction): 0.386
In acetonitrile, 273.15 K
  solubility (mole fraction): 0.01
In acetonitrile, 279.15 K
  solubility (mole fraction): 0.0139
In acetonitrile, 283.65 K
  solubility (mole fraction): 0.0194
In acetonitrile, 289.15 K
  solubility (mole fraction): 0.0267
In acetonitrile, 293.45 K
  solubility (mole fraction): 0.0371
In acetonitrile, 299.15 K
  solubility (mole fraction): 0.0531
In acetonitrile, 303.35 K
  solubility (mole fraction): 0.066
In acetonitrile, 309.15 K
  solubility (mole fraction): 0.0871
In acetonitrile, 313.75 K
  solubility (mole fraction): 0.111
In acetonitrile, 319.15 K
  solubility (mole fraction): 0.151
In acetonitrile, 323.65 K
  solubility (mole fraction): 0.183
In ethanol, 273.15 K
  solubility (mole fraction): 0.0302
In ethanol, 279.15 K
  solubility (mole fraction): 0.0356
In ethanol, 284.15 K
  solubility (mole fraction): 0.04
In ethanol, 289.15 K
  solubility (mole fraction): 0.0477
In ethanol, 293.35 K
  solubility (mole fraction): 0.0554
In ethanol, 298.95 K
  solubility (mole fraction): 0.0648
In ethanol, 303.35 K
  solubility (mole fraction): 0.0742
In ethanol, 313.15 K
  solubility (mole fraction): 0.105
In ethanol, 317.15 K
  solubility (mole fraction): 0.117
In ethanol, 324.15 K
  solubility (mole fraction): 0.143
In ethyl acetate, 273.15 K
  solubility (mole fraction): 0.053
In ethyl acetate, 279.15 K
  solubility (mole fraction): 0.0608
In ethyl acetate, 283.65 K
  solubility (mole fraction): 0.0684
In ethyl acetate, 289.15 K
  solubility (mole fraction): 0.0778
In ethyl acetate, 293.45 K
  solubility (mole fraction): 0.0856
In ethyl acetate, 299.15 K
  solubility (mole fraction): 0.0977
In ethyl acetate, 303.35 K
  solubility (mole fraction): 0.108
In ethyl acetate, 309.15 K
  solubility (mole fraction): 0.123
In ethyl acetate, 313.75 K
  solubility (mole fraction): 0.134
In ethyl acetate, 319.15 K
  solubility (mole fraction): 0.154
In ethyl acetate, 323.65 K
  solubility (mole fraction): 0.169
In isobutanol, 273.15 K
  solubility (mole fraction): 0.0101
In isobutanol, 279.15 K
  solubility (mole fraction): 0.013
In isobutanol, 284.15 K
  solubility (mole fraction): 0.0153
In isobutanol, 289.15 K
  solubility (mole fraction): 0.0176
In isobutanol, 293.35 K
  solubility (mole fraction): 0.0211
In isobutanol, 298.95 K
  solubility (mole fraction): 0.0261
In isobutanol, 303.35 K
  solubility (mole fraction): 0.0301
In isobutanol, 308.65 K
  solubility (mole fraction): 0.0369
In isobutanol, 313.15 K
  solubility (mole fraction): 0.044
In isobutanol, 317.15 K
  solubility (mole fraction): 0.0504
In isobutanol, 324.15 K
  solubility (mole fraction): 0.0629
In isopentanol, 273.15 K
  solubility (mole fraction): 0.0117
In isopentanol, 279.15 K
  solubility (mole fraction): 0.014
In isopentanol, 283.65 K
  solubility (mole fraction): 0.0152
In isopentanol, 289.15 K
  solubility (mole fraction): 0.0181
In isopentanol, 293.25 K
  solubility (mole fraction): 0.0217
In isopentanol, 298.95 K
  solubility (mole fraction): 0.0273
In isopentanol, 303.25 K
  solubility (mole fraction): 0.0312
In isopentanol, 308.15 K
  solubility (mole fraction): 0.0391
In isopentanol, 313.15 K
  solubility (mole fraction): 0.0458
In isopentanol, 318.15 K
  solubility (mole fraction): 0.055
In isopentanol, 323.15 K
  solubility (mole fraction): 0.0647
In isopropanol, 273.15 K
  solubility (mole fraction): 0.0145
In isopropanol, 279.15 K
  solubility (mole fraction): 0.0182
In isopropanol, 284.15 K
  solubility (mole fraction): 0.0216
In isopropanol, 289.15 K
  solubility (mole fraction): 0.0253
In isopropanol, 293.35 K
  solubility (mole fraction): 0.0297
In isopropanol, 298.95 K
  solubility (mole fraction): 0.0355
In isopropanol, 303.35 K
  solubility (mole fraction): 0.042
In isopropanol, 308.65 K
  solubility (mole fraction): 0.0505
In isopropanol, 313.15 K
  solubility (mole fraction): 0.0593
In isopropanol, 317.15 K
  solubility (mole fraction): 0.0676
In isopropanol, 324.15 K
  solubility (mole fraction): 0.0844
In methanol, 273.15 K
  solubility (mole fraction): 0.05
In methanol, 279.15 K
  solubility (mole fraction): 0.0604
In methanol, 284.15 K
  solubility (mole fraction): 0.0684
In methanol, 289.15 K
  solubility (mole fraction): 0.0798
In methanol, 293.35 K
  solubility (mole fraction): 0.0905
In methanol, 298.95 K
  solubility (mole fraction): 0.106
In methanol, 303.35 K
  solubility (mole fraction): 0.123
In methanol, 308.65 K
  solubility (mole fraction): 0.148
In methanol, 313.15 K
  solubility (mole fraction): 0.17
In methanol, 317.15 K
  solubility (mole fraction): 0.19
In methanol, 324.15 K
  solubility (mole fraction): 0.229
In methyl acetate, 273.15 K
  solubility (mole fraction): 0.0644
In methyl acetate, 279.15 K
  solubility (mole fraction): 0.0723
In methyl acetate, 283.65 K
  solubility (mole fraction): 0.0797
In methyl acetate, 289.15 K
  solubility (mole fraction): 0.0892
In methyl acetate, 293.25 K
  solubility (mole fraction): 0.1
In methyl acetate, 298.95 K
  solubility (mole fraction): 0.114
In methyl acetate, 303.25 K
  solubility (mole fraction): 0.127
In methyl acetate, 308.15 K
  solubility (mole fraction): 0.144
In methyl acetate, 313.15 K
  solubility (mole fraction): 0.163
In methyl acetate, 318.15 K
  solubility (mole fraction): 0.186
In methyl acetate, 323.15 K
  solubility (mole fraction): 0.208
In n-butanol, 273.15 K
  solubility (mole fraction): 0.0162
In n-butanol, 279.15 K
  solubility (mole fraction): 0.0198
In n-butanol, 284.15 K
  solubility (mole fraction): 0.0232
In n-butanol, 289.15 K
  solubility (mole fraction): 0.0268
In n-butanol, 293.35 K
  solubility (mole fraction): 0.0312
In n-butanol, 298.95 K
  solubility (mole fraction): 0.0362
In n-butanol, 303.35 K
  solubility (mole fraction): 0.0423
In n-butanol, 308.65 K
  solubility (mole fraction): 0.0492
In n-butanol, 313.15 K
  solubility (mole fraction): 0.0579
In n-butanol, 317.15 K
  solubility (mole fraction): 0.065
In n-butanol, 324.15 K
  solubility (mole fraction): 0.0788
In n-hexanol, 273.15 K
  solubility (mole fraction): 0.0141
In n-hexanol, 279.15 K
  solubility (mole fraction): 0.0166
In n-hexanol, 283.65 K
  solubility (mole fraction): 0.0174
In n-hexanol, 289.15 K
  solubility (mole fraction): 0.0216
In n-hexanol, 293.25 K
  solubility (mole fraction): 0.0246
In n-hexanol, 298.95 K
  solubility (mole fraction): 0.0297
In n-hexanol, 303.25 K
  solubility (mole fraction): 0.034
In n-hexanol, 308.15 K
  solubility (mole fraction): 0.0407
In n-hexanol, 313.15 K
  solubility (mole fraction): 0.0468
In n-hexanol, 318.15 K
  solubility (mole fraction): 0.0557
In n-hexanol, 323.15 K
  solubility (mole fraction): 0.0641
In n-octanol, 273.15 K
  solubility (mole fraction): 0.0143
In n-octanol, 279.15 K
  solubility (mole fraction): 0.0159
In n-octanol, 283.65 K
  solubility (mole fraction): 0.0176
In n-octanol, 289.15 K
  solubility (mole fraction): 0.0206
In n-octanol, 293.25 K
  solubility (mole fraction): 0.0235
In n-octanol, 298.95 K
  solubility (mole fraction): 0.0275
In n-octanol, 303.25 K
  solubility (mole fraction): 0.0316
In n-octanol, 308.15 K
  solubility (mole fraction): 0.0377
In n-octanol, 313.15 K
  solubility (mole fraction): 0.0434
In n-octanol, 318.15 K
  solubility (mole fraction): 0.0505
In n-octanol, 323.15 K
  solubility (mole fraction): 0.0582
In n-pentanol, 273.15 K
  solubility (mole fraction): 0.0152
In n-pentanol, 279.15 K
  solubility (mole fraction): 0.0183
In n-pentanol, 284.15 K
  solubility (mole fraction): 0.0207
In n-pentanol, 289.15 K
  solubility (mole fraction): 0.0243
In n-pentanol, 293.35 K
  solubility (mole fraction): 0.0276
In n-pentanol, 298.95 K
  solubility (mole fraction): 0.0326
In n-pentanol, 303.35 K
  solubility (mole fraction): 0.0379
In n-pentanol, 308.65 K
  solubility (mole fraction): 0.044
In n-pentanol, 313.15 K
  solubility (mole fraction): 0.0514
In n-pentanol, 317.15 K
  solubility (mole fraction): 0.0579
In n-pentanol, 324.15 K
  solubility (mole fraction): 0.0703
In n-propanol, 273.15 K
  solubility (mole fraction): 0.0193
In n-propanol, 279.15 K
  solubility (mole fraction): 0.0232
In n-propanol, 284.15 K
  solubility (mole fraction): 0.027
In n-propanol, 289.15 K
  solubility (mole fraction): 0.0314
In n-propanol, 293.35 K
  solubility (mole fraction): 0.0363
In n-propanol, 303.35 K
  solubility (mole fraction): 0.0513
In n-propanol, 308.65 K
  solubility (mole fraction): 0.0626
In n-propanol, 313.15 K
  solubility (mole fraction): 0.0728
In n-propanol, 317.15 K
  solubility (mole fraction): 0.0842
In n-propanol, 324.15 K
  solubility (mole fraction): 0.105
